Measured values: patent publication US20080009506A1, “Imidazole Compound” (priority 2004, published 2008)

System: rhythmic bladder contractions induced by substance P
Assay: Inhibitory effect on the rhythmic bladder contractions induced by substance P in anesthetized rats
Type: in vivo, Sprague-Dawley female rats
Details: 0.25 mg/kg, intravenous, urethane-anesthetized rats, substance P 0.33 μg/kg/min infusion
Description: For the experiments, Sprague-Dawley female rats (9 to 12 weeks old) weighing between 200 to 300 g were used. After urethane anesthetization (subcutaneously administered with a dose of 1.2 g/kg), cannulae were placed in both right and left femoral veins. One intravenous catheter was used for administration of compounds, and the other was for the substance P (0.33 μg/kg/min) infusion. We also cannulated into ureter to pass urine. Polyethylene catheters were inserted into carotid artery for continuous monitoring of arterial blood pressure and heart rate. For continuous infusion, transurethral bladder catheter was inserted into the bladder through the urethra and tied in place by a ligature around the urethral orifice. One end of the catheter was attached to a pressure transducer in order to measure intravesical pressure. The other end of the catheter was used for infusion of saline into the bladder. After stabilization of blood pressure and heart rate and after the bladder was emptied, cystometry was performed by filling the bladder slowly with about 0.6 ml of saline. After about 10 minutes, intravenous infusion of substance P (0.33 μg/kg/min) was started for stabilization of the micturition reflex. Compounds were administered after stable rhythmic bladder contraction was obtained over 15 minutes. […]

## NC(=O)c1ccc(-n2cc(C(F)(F)F)nc2-c2ccccc2)cc1 [Example 1 (Compound 4)]
  100% inhibition time: time during which the frequency of the rhythmic contraction had been completely inhibited: 10.08 min
